Laboratory results as given in patent US20170081338A1, “SUBSTITUTED HETEROARYL COMPOUNDS AND METHODS OF USE” (Sunshine Lake Pharma Co., Ltd., priority 2015, published 2017).

Tests used:
[1] = Pharmacokinetics after intravenous and oral administration in rats; type: in vivo; details: for Clearance (CL) after iv dosing / AUC(0-t) / half-life / Vd: dose 1 mg/kg, iv dosing; for F: oral bioavailability; for AUC(0-t) / half-life / Vd: rat, plasma; for Vd: read-out: Vss
Description: The LC/MS/MS system used in the analysis consists of an Agilent 1200 Series vacuum degasser, binary pump, well-plate autosampler, thermostatted column compartment, the Agilent G6430 Triple Quadrupole Mass Spectrometer with an electrosprayionization (ESI) source. Quantitative analysis was carried out using MRM mode. The parameters for MRM transitions are in the Table A.
An Agilent XDB-C18, 2.1×30 mm, 3.5 μM column was used for the analysis. 5 μL of the samples were injected. Analysis condition: The mobile phase was 0.1% formic acid in water (A) and 0.1% formic acid in methanol (B). The flow rate was 0.4 mL/min. And the gradient of Mobile phase was in the Table B.
Alternatively, an Agilent 6330 series LC/MS/MS spectrometer equipped with G1312A binary pumps, a G1367A autosampler and a G1314C UV detector were used in the analysis. An ESI source was used on the LC/MS/MS spectrometer. The analysis was done in positive ion mode as appropriate and the MRM transition for each analyte was optimized using standard solution. A Capcell MP-C18 100×4.6 mm I.D., […] column (Phenomenex, Torrance, Calif., USA) was used during the analysis. The mobile phase was 5 mM ammonia acetate, 0.1% MeOH in water (A): 5 mM ammonia acetate, 0.1% MeOH in acetonitrile (B) (70/30, v/v). The flow rate was 0.6 mL/min. Column was maintained at ambient temperature. 20 μL of the samples were injected.
The compounds disclosed herein are assessed in pharmacokinetic studies in mice, rats, dogs or monkeys. The compounds are administered as a water solution, 2% HPMC+1% TWEEN®80 in water solution, 5% DMSO+5% solutol in saline, 4% MC suspension or capsule. For the intravenous administration, the animals are generally given at 0.5, 1 or 2 mg/kg dose. For the oral (p.o.) dosing, mice and rats are generally given 0.5, 1, 5 or 10 mg/kg dose, and dogs and monkeys are generally given 10 mg/kg dose. The blood samples (0.3 mL) are drawn at 0.25, 0.5, 1.0, 2.0, 3.0, 4.0, 6.0, 8.0, 12 and 24 h time points or 0.083, 0.25, 0.5, 1.0, 2.0, 4.0, 6.0, 8.0 and 24 h time points and centrifuged at 3,000 or 4000 rpm for 2 to 10 min. The plasma solutions are collected, and stored at −20° C. or −70° C. until analyzed by LC/MS/MS as described above.

[2] = Compound stability in rat liver microsomes; type: in vitro ADME; details: pH 7.4; for half-life at 5 μM: rat liver microsomes 0.5 mg protein/mL, compound 5 μM, NADPH, 37° C., read-out: Rat T1/2; for CLint scaled at 5 μM: rat liver microsomes, in vivo CLint extrapolated
Description: (§1) Human or rat liver microsomes incubations were conducted in duplicate in polypropylene tubes. The typical incubation mixtures consisted of human or rat liver microsomes (0.5 mg protein/mL), compounds of interest (5 μM) and NADPH (1.0 mM) in a total volume of 200 μL potassium phosphate buffer (PBS, 100 mM, pH 7.4). Compounds were dissolved in DMSO and diluted with PBS such that the final concentration of DMSO was 0.05%. The enzymatic reactions were commenced with the addition of protein after a 3-min preincubation and incubated in a water bath open to the air at 37° C. Reactions were terminated at various time points (0, 5, 10, 15, 30, 60 min) by adding equal volume of ice-cold acetonitrile. The samples were stored at −80° C. until LC/MS/MS assays.
(§2) The concentrations of compounds in the incubation mixtures of human or rat liver microsomes were determined by a LC/MS/MS method. The ranges of the linearity in the concentration range were determined for each tested compounds.
(§3) A parallel incubation was performed using denatured microsomes as the negative control, and reactions were terminated at various time points (0, 15, 60 min) after incubation at 37° C.
(§4) Dextromethorphan (70 μM) was selected as the positive control, and reactions were terminated at various time points (0, 5, 10, 15, 30, 60 min) after incubation at 37° C. Both positive and negative control samples were included in each assay to ensure the integrity of the microsomal incubation system.
(§5) The concentrations of compounds in human or rat liver microsome incubations were plotted as a percentage of the relevant zero time point control for each reaction. The in vivo CLint were extrapolated (ref.: Naritomi, Y.; Terashita, S.; Kimura, S.; Suzuki, A.; Kagayama, A.; and Sugiyama, Y.; Prediction of human hepatic clearance from in vivo animal experiments and in vitro metabolic studies with liver microsomes from animals and humans. Drug Metab. Dispos., 2001, 29: 1316-1324).

[3] = Compound stability in human liver microsomes; type: in vitro ADME; details: pH 7.4; for half-life at 5 μM: human liver microsomes 0.5 mg protein/mL, compound 5 μM, NADPH, 37° C., read-out: Human T1/2; for CLint scaled at 5 μM: human liver microsomes, in vivo CLint extrapolated
Description: as §1, §2, §3, §4, §5

| SMILES | Clearance (CL) after iv dosing [1] | F [1] | AUC(0-t) [1] | half-life [1] | Vd [1] | half-life at 5 μM [2] | CLint scaled at 5 μM [2] | half-life at 5 μM [3] | CLint scaled at 5 μM [3] |
| --- | --- | --- | --- | --- | --- | --- | --- | --- | --- |
| Cn1cc(Nc2ncc(Cl)c(N[C@@H]3COC4C3OC[C@@H]4Nc3ccc(C#N)cn3)n2)cn1 (stereo partly drawn) [Ex. 23, 6-(((3S,6R)-6-((5-chloro-2-((1-methyl-1H-pyrazol-4-yl)amino)pyrimidin-4-yl)amino)hexahydrofuro[3,2-b]furan-3-yl)amino)nicotinonitrile] | 7 mL/min/kg | 67.5% | 2440 ng·h/mL | 27 min | 0.26 L/kg | 26.6 min | 93.4 mL/min/kg | 60 min | 29 mL/min/kg |
| CNC(=O)N[C@H]1COC2C1OC[C@H]2Nc1nc(Nc2cnn(C)c2)ncc1Cl (stereo partly drawn) [Ex. 1, 1-((3S,6R)-6-((5-chloro-2-((1-methyl-1H-pyrazol-4-yl)amino)pyrimidin-4-yl)amino)hexahydrofuro[3,2-b]furan-3-yl)-3-methylurea] | 42 mL/min/kg | 52.4% | 398 ng·h/mL | 13.8 min | 0.55 L/kg | 116 min | 21.4 mL/min/kg |  |  |
| Cn1cc(Nc2ncc(Cl)c(N[C@@H]3COC4C3OC[C@@H]4NS(=O)(=O)CC3CC(F)C3)n2)cn1 (stereo partly drawn) [Ex. 39, N-((3S,6R)-6-((5-chloro-2-((1-methyl-1H-pyrazol-4-yl)amino)pyrimidin-4-yl)amino)hexahydrofuro[3,2-b]furan-3-yl)-1-(3-fluorocyclobutyl)methanesulfonamide] | 35.8 mL/min/kg | 48.7% | 464 ng·h/mL | 33 min | 1.07 L/kg |  |  |  |  |
| CC(CF)CS(=O)(=O)N[C@H]1COC2C1OC[C@H]2Nc1nc(Nc2cnn(C)c2)ncc1Cl (stereo partly drawn) [Ex. 37, N-((3S,6R)-6-((5-chloro-2-((1-methyl-1H-pyrazol-4-yl)amino)pyrimidin-4-yl)amino)hexahydrofuro[3,2-b]furan-3-yl)-3-fluoro-2-methylpropane-1-sulfonamide] | 34.2 mL/min/kg | 69.5% | 491 ng·h/mL | 32.4 min | 0.86 L/kg | 34.9 min | 71.1 mL/min/kg | 26.6 min | 65.5 mL/min/kg |
| O=S(=O)(CC1CC1)N[C@H]1COC2C1OC[C@H]2Nc1nc(Nc2cnn(C3CCNCC3)c2)ncc1Cl (stereo partly drawn) [Ex. 35, N-((3S,6R)-6-((5-chloro-2-((1-(piperidin-4-yl)-1H-pyrazol-4-yl)amino)pyrimidin-4-yl)amino)hexahydrofuro[3,2-b]furan-3-yl)-1-cyclopropylmethanesulfonamide] |  |  |  |  |  | 441 min | 5.6 mL/min/kg | 51.1 min | 34 mL/min/kg |
| CC(O)CS(=O)(=O)N[C@H]1COC2C1OC[C@H]2Nc1nc(Nc2cnn(C)c2)ncc1Cl (stereo partly drawn) [Ex. 44, N-((3S,6R)-6-((5-chloro-2-((1-methyl-1H-pyrazol-4-yl)amino)pyrimidin-4-yl)amino)hexahydrofuro[3,2-b]furan-3-yl)-2-hydroxypropane-1-sulfonamide] |  |  |  |  |  | 310 min | 8 mL/min/kg | 837 min | 2.1 mL/min/kg |
| Cn1cc(Nc2ncc(Cl)c(N[C@@H]3COC4C3OC[C@@H]4N3CCCS3(=O)=O)n2)cn1 (stereo partly drawn) [Ex. 12, 2-((3S,6R)-6-((5-chloro-2-((1-methyl-1H-pyrazol-4-yl)amino)pyrimidin-4-yl)amino)hexahydrofuro[3,2-b]furan-3-yl)isothiazolidine 1,1-dioxide] | 59.8 mL/min/kg | 75.2% | 363 ng·h/mL | 40.2 min | 1.98 L/kg | 105 min | 23.7 mL/min/kg | 272 min | 6.39 mL/min/kg |
| CC(CS(=O)(=O)N[C@H]1COC2C1OC[C@H]2Nc1nc(Nc2cnn(C)c2)ncc1Cl)C(F)(F)F (stereo partly drawn) [Ex. 40, N-((3S,6R)-6-((5-chloro-2-((1-methyl-1H-pyrazol-4-yl)amino)pyrimidin-4-yl)amino)hexahydrofuro[3,2-b]furan-3-yl)-3,33-trifluoro-2-methylpropane-1-sulfonamide] | 30.3 mL/min/kg | 77.3% | 533 ng·h/mL | 31.2 min | 1.22 L/kg | 19.7 min | 126 mL/min/kg | 25.2 min | 69 mL/min/kg |
| Cn1cc(Nc2ncc(Cl)c(N[C@@H]3COC4C3OC[C@@H]4NS(=O)(=O)CC(C)(C)O)n2)cn1 (stereo partly drawn) [Ex. 41, N-((3S,6R)-6-((5-chloro-2-((1-methyl-1H-pyrazol-4-yl)amino)pyrimidin-4-yl)amino)hexahydrofuro[3,2-b]furan-3-yl)-2-hydroxy-2-methylpropane-1-sulfonamide] | 57.3 mL/min/kg | 37.0% | 290 ng·h/mL | 49.2 min | 1.64 L/kg | 78.7 min | 31.5 mL/min/kg | 102 min | 17 mL/min/kg |
| Cn1cc(Nc2ncc(Cl)c(N[C@@H]3COC4C3OC[C@@H]4NS(=O)(=O)CC(C)(F)F)n2)cn1 (stereo partly drawn) [Ex. 38, N-((3S,6R)-6-((5-chloro-2-((1-methyl-1H-pyrazol-4-yl)amino)pyrimidin-4-yl)amino)hexahydrofuro[3,2-b]furan-3-yl)-2,2-difluoropropane-1-sulfonamide] | 17 mL/min/kg | 106.6% | 982 ng·h/mL | 32.4 min | 0.69 L/kg | 47.7 min | 52.1 mL/min/kg | 65.6 min | 26.5 mL/min/kg |
| Cn1cc(Nc2ncc(Cl)c(N[C@@H]3COC4C3OC[C@@H]4N3CCOC3=O)n2)cn1 (stereo partly drawn) [Ex. 9, 3-((3S,6R)-6-((5-chloro-2-((1-methyl-1H-pyrazol-4-yl)amino)pyrimidin-4-yl)amino)hexahydrofuro[3,2-b]furan-3-yl)oxazolidin-2-one] |  | 64.6% | 792 ng·h/mL | 636 min | 27.1 L/kg |  |  |  |  |
| Cn1cc(Nc2ncc(Cl)c(N[C@@H]3COC4C3OC[C@@H]4NS(=O)(=O)c3ccc(F)cc3)n2)cn1 (stereo partly drawn) [Ex. 8, N-((3S,6R)-6-((5-chloro-2-((1-methyl-1H-pyrazol-4-yl)amino)pyrimidin-4-yl)amino)hexahydrofuro[3,2-b]furan-3-yl)-4-fluorobenzenesulfonamide] | 38 mL/min/kg | 90.1% | 452 ng·h/mL | 37.2 min | 1.87 L/kg | 68 min | 36.5 mL/min/kg | 57.3 min | 30.4 mL/min/kg |
